From BindingDB's records for patent US20240025893 (Asahi Kasei Pharma, 2024)

Target: T1, Interleukin-1 receptor-associated kinase 4 (Homo sapiens, UniProt Q9NWZ3)
T1 sequence (Q9NWZ3 whole entry): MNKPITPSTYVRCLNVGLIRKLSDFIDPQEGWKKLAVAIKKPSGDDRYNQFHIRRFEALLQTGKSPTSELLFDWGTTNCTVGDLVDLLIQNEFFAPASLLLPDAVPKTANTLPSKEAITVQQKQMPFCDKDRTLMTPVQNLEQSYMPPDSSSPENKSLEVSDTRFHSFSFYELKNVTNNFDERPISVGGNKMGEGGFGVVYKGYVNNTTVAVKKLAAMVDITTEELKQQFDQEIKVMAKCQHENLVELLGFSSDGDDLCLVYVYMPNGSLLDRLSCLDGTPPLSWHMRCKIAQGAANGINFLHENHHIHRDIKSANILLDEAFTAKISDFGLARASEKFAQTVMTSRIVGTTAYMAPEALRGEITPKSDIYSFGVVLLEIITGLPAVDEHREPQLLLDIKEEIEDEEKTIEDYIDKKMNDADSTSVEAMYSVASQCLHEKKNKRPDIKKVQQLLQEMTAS
Experiment: Measurement of Human IRAK-4 Inhibitory Activity
Protocol: For the measurement of the activity of the human IRAK-4 (Invitrogen, Cat. PV3362), phosphorylation of the IRAK-4 peptide substrate (biotin-KKKKRFSFKKSFKC) by the enzyme in the presence of 10 μM ATP (Sigma-Aldrich, Cat. A7699) was measured by the TR-FRET method. The enzymatic reaction was performed in a reaction buffer containing 50 mM HEPES (pH 7.2), 1 mM DTT, 0.1 mM Na3VO4, 5 mM MgCl2, 1 mM MnCl2, and 0.1% bovine serum albumin. For the measurement of the IRAK-4 inhibitory activity, a test compound was added to the reaction buffer containing 1 nM IRAK-4, 0.5 μM peptide substrate, and 10 μM ATP, and the mixture was incubated at 23° C. for 30 minutes. Then, a detection solution containing an antibody labeled with europium cryptate (0.3 μg/mL, the antibody was prepared by using the IRAK-4 peptide substrate as the antigen), streptavidin-XL665 (2 μg/mL, CisBio, Cat. 610SAXLB), 50 mM HEPES (pH 7.2), 0.1% BSA, 120 mM KF, and 66.7 mM EDTA (all the concentrations of the reagents are final concentrations) was added to terminate the reaction, and then the mixture was further incubated at 23° C. for 60 minutes.

| IC50 [nM] | SMILES |
| --- | --- |
| 1.75 | CC(C)(C)OC1CC(C(=O)Nc2cc3cc(-c4cnc(CO[C@H]5CCC[C@@H]5O)nc4)ccn3n2)C1 (some centres not stated) [US20240025893, Examplee-03-01] |
| 3.29 | CO[C@H]1C[C@@H](C(=O)Nc2nc3ccc(-c4cnc(CO[C@H]5CCC[C@@H]5O)nc4)cc3s2)C1 [US20240025893, Example a-01-06] |
